According to ChEMBL document CHEMBL3885861, “Open TG-GATES”:

Species: Rattus norvegicus
Assay: Open TG-GATES - Regimen: Daily Repeat
Format: toxicity, organism-based, Sprague-Dawley
Design: regimen Daily Repeat, gender Male, age 6 weeks
Conditions: in vivo, po, 0 mg/kg, route gavage, dose level Control; for APTT / Bas / Eos / Fbg / Hb / Ht / Lym / MCH / MCV / Mono / Neu / PT / Plat / RBC / Ret / WBC / MCHC: tissue Blood; for KIDNEY_L / KIDNEY_R / KIDNEY_TOTAL: tissue Kidney; for LIVER: tissue Liver; for ALP / ALT / AST / CRE / Ca / Cl / DBIL / GLC / IP / K / LDH / Na / PL / RALB / TBIL / TC / TG / TP / gamma-GTP / BUN: tissue Plasma

SMILES: CCOc1ccc(NC(C)=O)cc1 [PHENACETIN]
- TERMINAL_BW (72 h, time 3 day): 242.4 g
- APTT (72 h, time 3 day): 16.7 s
- Bas (72 h, time 3 day): 0%
- Eos (72 h, time 3 day): 1%
- Fbg (72 h, time 3 day): 299.2 mg/dL
- Hb (72 h, time 3 day): 13.2 g/dL
- Ht (72 h, time 3 day): 39.8%
- Lym (72 h, time 3 day): 71.2%
- MCH (72 h, time 3 day): 21.1 pg
- MCV (72 h, time 3 day): 63.4 fL
- Mono (72 h, time 3 day): 2.8%
- Neu (72 h, time 3 day): 24.4%
- PT (72 h, time 3 day): 13.2 s
- Plat (72 h, time 3 day): 121.2 x10_4/uL
- RBC (72 h, time 3 day): 628.2 x10_4/ul
- Ret (72 h, time 3 day): 6.6%
- WBC (72 h, time 3 day): 85.4 x10_2/uL
- KIDNEY_L (72 h, time 3 day): 1 g
- KIDNEY_R (72 h, time 3 day): 1 g
- KIDNEY_TOTAL (72 h, time 3 day): 2 g
- LIVER (72 h, time 3 day): 11.5 g
- ALP (72 h, time 3 day): 2120 IU/L
- ALT (72 h, time 3 day): 37.8 IU/L
- AST (72 h, time 3 day): 67.2 IU/L
- CRE (72 h, time 3 day): 0.2 mg/dL
- Ca (72 h, time 3 day): 11.1 mg/dL
- Cl (72 h, time 3 day): 105.6 meq/L
- DBIL (72 h, time 3 day): 0.004 mg/dL
- GLC (72 h, time 3 day): 176.6 mg/dL
- IP (72 h, time 3 day): 7.2 mg/dL
- K (72 h, time 3 day): 4.2 meq/L
- LDH (72 h, time 3 day): 118.6 IU/L
- Na (72 h, time 3 day): 143.8 meq/L
- PL (72 h, time 3 day): 171 mg/dL
- RALB (72 h, time 3 day): 2.6 g/dL
- TBIL (72 h, time 3 day): 0.04 mg/dL
- TC (72 h, time 3 day): 85.8 mg/dL
- TG (72 h, time 3 day): 102.4 mg/dL
- TP (72 h, time 3 day): 5.7 g/dL
- gamma-GTP (72 h, time 3 day): 1 IU/L
- TERMINAL_BW ([…], time 7 day): 272.4 g
- TERMINAL_BW ([…], time 14 day): 332.8 g
- TERMINAL_BW ([…], time 28 day): 424.6 g
- APTT ([…], time 7 day): 17.7 s
- Bas ([…], time 7 day): 0%
- Eos ([…], time 7 day): 1.4%
- Fbg ([…], time 7 day): 300.2 mg/dL
- Hb ([…], time 7 day): 13.9 g/dL
- Ht ([…], time 7 day): 41.1%
- Lym ([…], time 7 day): 78.6%
- MCH ([…], time 7 day): 21.2 pg
- MCHC ([…], time 7 day): 33.8%
- MCV ([…], time 7 day): 62.6 fL
- Mono ([…], time 7 day): 2.6%
- PT ([…], time 7 day): 13.5 s
- Plat ([…], time 7 day): 118.8 x10_4/uL
- RBC ([…], time 7 day): 656.2 x10_4/ul
- Ret ([…], time 7 day): 5.4%
- WBC ([…], time 7 day): 93.4 x10_2/uL
- APTT ([…], time 14 day): 17.5 s
- Bas ([…], time 14 day): 0%
- Eos ([…], time 14 day): 1.4%
- Fbg ([…], time 14 day): 320.2 mg/dL
- Hb ([…], time 14 day): 14.3 g/dL
- Ht ([…], time 14 day): 42.1%
- Lym ([…], time 14 day): 75%
- MCH ([…], time 14 day): 19.9 pg
- MCHC ([…], time 14 day): 34%
- MCV ([…], time 14 day): 58.6 fL
- Mono ([…], time 14 day): 2.6%
- Neu ([…], time 14 day): 20.6%
- PT ([…], time 14 day): 13.3 s
- Plat ([…], time 14 day): 117.7 x10_4/uL
- RBC ([…], time 14 day): 720.4 x10_4/ul
- Ret ([…], time 14 day): 4.1%
- WBC ([…], time 14 day): 108.4 x10_2/uL
- APTT ([…], time 28 day): 23 s
- Bas ([…], time 28 day): 0%
- Eos ([…], time 28 day): 1.4%
- Fbg ([…], time 28 day): 276 mg/dL
- Hb ([…], time 28 day): 15 g/dL
- Ht ([…], time 28 day): 43.5%
- Lym ([…], time 28 day): 73.2%
- MCH ([…], time 28 day): 19.2 pg
- MCV ([…], time 28 day): 55.6 fL
- Mono ([…], time 28 day): 2.6%
- Neu ([…], time 28 day): 22.2%
- PT ([…], time 28 day): 14 s
- Plat ([…], time 28 day): 114.1 x10_4/uL
- RBC ([…], time 28 day): 782.6 x10_4/ul
- Ret ([…], time 28 day): 2.6%
- WBC ([…], time 28 day): 109.3 x10_2/uL
- KIDNEY_L ([…], time 7 day): 1.1 g
- KIDNEY_R ([…], time 7 day): 1.1 g
- KIDNEY_TOTAL ([…], time 7 day): 2.3 g
- KIDNEY_L ([…], time 14 day): 1.3 g
- KIDNEY_R ([…], time 14 day): 1.3 g
- KIDNEY_TOTAL ([…], time 14 day): 2.7 g
- KIDNEY_L ([…], time 28 day): 1.4 g
- KIDNEY_R ([…], time 28 day): 1.4 g
- KIDNEY_TOTAL ([…], time 28 day): 2.7 g
- LIVER ([…], time 7 day): 12.1 g
- LIVER ([…], time 14 day): 13.9 g
- LIVER ([…], time 28 day): 17 g
- ALP ([…], time 7 day): 1453 IU/L
- ALT ([…], time 7 day): 33.4 IU/L
- AST ([…], time 7 day): 65.8 IU/L
- BUN ([…], time 7 day): 15 mg/dL
- CRE ([…], time 7 day): 0.2 mg/dL
- Ca ([…], time 7 day): 10.9 mg/dL
- Cl ([…], time 7 day): 105 meq/L
- DBIL ([…], time 7 day): 0.004 mg/dL
- IP ([…], time 7 day): 7.1 mg/dL
- K ([…], time 7 day): 4.2 meq/L
- LDH ([…], time 7 day): 95.8 IU/L
- PL ([…], time 7 day): 167.6 mg/dL
- RALB ([…], time 7 day): 2.7 g/dL
- TBIL ([…], time 7 day): 0.044 mg/dL
- TC ([…], time 7 day): 84.4 mg/dL
- TG ([…], time 7 day): 127.8 mg/dL
- TP ([…], time 7 day): 5.9 g/dL
- gamma-GTP ([…], time 7 day): 1 IU/L
- ALP ([…], time 14 day): 1542.8 IU/L
- ALT ([…], time 14 day): 36.4 IU/L
- AST ([…], time 14 day): 62.4 IU/L
- BUN ([…], time 14 day): 14.6 mg/dL
- CRE ([…], time 14 day): 0.2 mg/dL
- Ca ([…], time 14 day): 10.8 mg/dL
- Cl ([…], time 14 day): 104.6 meq/L
- DBIL ([…], time 14 day): 0.024 mg/dL
- GLC ([…], time 14 day): 181.4 mg/dL
- IP ([…], time 14 day): 7.1 mg/dL
- K ([…], time 14 day): 4.2 meq/L
- LDH ([…], time 14 day): 158.6 IU/L
- Na ([…], time 14 day): 143.6 meq/L
- PL ([…], time 14 day): 152 mg/dL
- RALB ([…], time 14 day): 2.7 g/dL
- TBIL ([…], time 14 day): 0.062 mg/dL
- TC ([…], time 14 day): 72.6 mg/dL
- TG ([…], time 14 day): 129 mg/dL
- TP ([…], time 14 day): 6 g/dL
- gamma-GTP ([…], time 14 day): 1.2 IU/L
- ALP ([…], time 28 day): 1212.8 IU/L
- ALT ([…], time 28 day): 37 IU/L
- AST ([…], time 28 day): 68.2 IU/L
- BUN ([…], time 28 day): 17.2 mg/dL
- CRE ([…], time 28 day): 0.3 mg/dL
- Ca ([…], time 28 day): 10.7 mg/dL
- Cl ([…], time 28 day): 104.8 meq/L
- DBIL ([…], time 28 day): 0.02 mg/dL
- GLC ([…], time 28 day): 185.2 mg/dL
- IP ([…], time 28 day): 6 mg/dL
- K ([…], time 28 day): 4 meq/L
- LDH ([…], time 28 day): 76.6 IU/L
- Na ([…], time 28 day): 144.8 meq/L
- PL ([…], time 28 day): 149 mg/dL
- RALB ([…], time 28 day): 2.9 g/dL
- TBIL ([…], time 28 day): 0.048 mg/dL
